Measured values from US10071158B2, “Combination of the application of antibodies for immunostimulation together with glucocorticoids” (Lindis Biotech GmbH, priority 2005, dated 2018).
“Also recorded” adds a separate entry of the source.

What was measured:
HCT8 tumour cells [1] = experiment: Two-hour cytotoxicity assay with fluorescence-marked (BCECF-AM) HCT8 tumour cells, stimulated PBMC (FIG. 5); type: cell-based, human; parameters: effect on specific percentage cytotoxicity of stimulated PBMC: dose or concentration left out as unconfirmed
Description: FIG. 5A-5D represents in diagrams the results of the measurement of the specific percentage cytotoxicity, which was determined in a two-hour cytotoxicity assay with fluorescence-marked HCT8 tumour cells. In FIGS. 5A to 5D the specific percentage cytotoxicity against HCT8 has been plotted as a function of the ratio of effector cells to target cells (E/T), the cytotoxicity test having been carried out in each instance in the case of a ratio of the effector cells to the target cells of 40:1, 20:1, 10:1, 5:1 and 2.5:1.
With the aid of a cytotoxicity test the influence of glucocorticoid on the T-cell toxicity was investigated. The extraction of the PBMC and the stimulation thereof were carried out in accordance with the above Example 1.
The measurement of cytotoxicity was undertaken with the aid of a fluorescence test using the dyestuff BCECF-AM. The measurement was undertaken by means of 2 h release technology corresponding to the procedure in Kolber et al. (1988) J. Immunol. Meth. 108: 255-264.

[2] = system: mononuclear cells of the peripheral blood (PBMC); experiment: Release of TNF-α by PBMC after stimulation with anti-EpCAM x anti-CD3 antibody without/with HCT8 tumour cells (ELISA); type: cell-based, human; conditions: without HCT8; dexamethasone 0.1 μg/ml (FIG. 2C)
Excerpt: FIG. 2A-2C represents in diagrams the results of the release of tumour necrosis factor α (TNF-α) after stimulation with trifunctional bispecific antibody of the specificity anti-EpCAM x anti-CD3 without and in the presence of EpCAM-positive tumour cells.
This stimulation without target cells corresponds, in turn, as already stated with respect to FIG. 1A, to the systemic, non-specific release of cytokine, which arises independently of the antibody/antigen interaction. This systemic release of TNF-α is effected by the totality of the PBMC population. […]
FIG. 2B represents, in a diagram similar to FIG. 1B, the release of TNF-α from PBMC after antibody stimulation with contact with EpCAM-positive tumour cells, the TNF-α concentration in pg/ml being plotted, here too, on the y-axis. […] In the case of stimulation with contact with EpCAM-positive tumour cells, in comparison with the stimulation without contact with target cells, in connection with the release of TNF-α absolutely higher values are also measured, which, however, as already stated above with respect to the release of IL-6 in connection with FIG. 1B, has its origin in the specific immunological action at the site of the antibody/antigen interaction. […]
(§1) FIGS. 14 to 16 show graphic representations of the results of the release of various cytokines in tumour patients by PBMC. […] The release of the same cytokines was measured likewise. […]

HCT8 tumour cells [3] = experiment: Cytotoxicity assay with fluorescence-marked HCT8 tumour cells, PBMC of healthy test subjects and tumour patients (FIG. 10); type: cell-based, human
Description: FIGS. 10A to 10C represent the mean values of the measurements carried out in respect of three healthy test subjects, whereas FIG. 10D represents the mean values of the measurements carried out in respect of six patients with gastrointestinal carcinoma. In the experiments a stimulation was effected with trifunctional bispecific antibodies with the specificity anti-EpCAM x anti-CD3 at various concentrations amounting to 10 ng/ml, 100 ng/ml and 1000 ng/ml. The respective concentration of the antibody that has been used is specified in FIGS. 10A to 10D. The concentration of the PBMC amounted to 10^6 cells/ml, that of the HCT8 cells amounted to 5×10^4 cells/ml. […] On the y-axis the percentage cytotoxicity has been plotted; on the x-axis the respective experimental assay of the PBMC has been plotted, with unstimulated PBMC serving by way of control (PBMC).

[4] = system: mononuclear cells of the peripheral blood (PBMC); experiment: Release of IL-6 by PBMC after stimulation with anti-EpCAM x anti-CD3 antibody without/with HCT8 tumour cells (ELISA); type: cell-based, human; conditions: antibody-stimulated PBMC with HCT8; dexamethasone 0.01 μg/ml to 10 μg/ml (FIG. 1B)
Description: FIG. 1A represents the release of IL-6, the IL-6 concentration in pg/ml being plotted on the y-axis. On the x-axis the respective stimulation of the PBMC has been plotted, with unstimulated PBMC serving by way of control (bar “PBMC”). In this connection, E signifies in each instance the stimulation with 100 μg/ml trifunctional bispecific antibody with the specificity anti-EpCAM x anti-CD3. […] In the experiment according to FIG. 1A the release of IL-6 from PBMC is investigated after stimulation without contact with EpCAM-positive tumour cells (=target cells). The stimulation without EpCAM-positive tumour cells corresponds to the non-specific release of cytokine, which is independent of the antigen binding. Release is accordingly effected systemically by the totality of the PBMC.
This procedure of stimulation with EpCAM-positive tumour cells corresponds to the situation of the release of IL-6 by the PBMC at the site of antigen binding. […] In the clinical use of the immunostimulating antibody together with the glucocorticoid the high quantity of IL-6 is released only by a few PBMC that are directly involved in the specific action. […]
as §1

[5] = after i.v. injection; cited from earlier work
[6] = system: mononuclear cells of the peripheral blood (PBMC); experiment: Release of IFN-γ by PBMC after stimulation with anti-EpCAM x anti-CD3 antibody without/with HCT8 tumour cells (ELISA); type: cell-based, human; conditions: dexamethasone 0.1 μg/ml
Description: Mononuclear cells were extracted from the peripheral blood of a healthy volunteer by means of centrifugation over Ficoll (density 1.068 g/cm^3). To this end, venous heparinised blood was stratified over Ficoll and centrifuged at 2000 rpm for 20 min. The cell layer located above the Ficoll was pipetted off after centrifugation and was washed with PBS.
For the purpose of stimulation, the PBMC were used at a concentration of 1×10^6/ml. The stimulation of the PBMC was effected with an intact trifunctional bispecific antibody either of the specificity anti-EpCAM x anti-CD3 at a concentration of 100 μg/ml or of the specificity anti-HER2/neu x anti-CD3 at a concentration of 1 mg/ml. The stimulation was carried out for 24 h by incubation at 37 ° C. The stimulation was effected in each instance without tumour cells or in the presence of 5×10^4 HCT8 tumour cells (relative to ATCC; EpCAM-positive) per ml.
After the stimulation the determination of the concentrations of the cytokines IL-6, IL-10, TNF-α and IFN-γ was undertaken in the supernatant on plates with 24 recesses in each instance by means of an ELISA. In each instance duplicate measurements were carried out. The ELISAs were undertaken by means of standardised kits produced by R&D Systems, in accordance with the manufacturer's instructions.

In the case of `C[C@@H]1C[C@H]2[C@@H]3CCC4=CC(=O)C=C[C@]4(C)[C@@]3(F)[C@@H](O)C[C@]2(C)[C@@]1(O)C(=O)CO` [dexamethasone], the “effect on the cytotoxicity of stimulated PBMC” value (HCT8 tumour cells [1]; dexamethasone 0.01 μg/ml) was “no effect”, the percentage cytotoxicity (HCT8 tumour cells [1]; dexamethasone 0.1 μg/ml to 10 μg/ml, stimulation in the presence of HCT8, E/T 40:1) was “maintained constant at a high level” and the “inhibition of the specific percentage cytotoxicity” value (HCT8 tumour cells [1]; dexamethasone 0.1 μg/ml, with or without HCT8 during stimulation (FIG. 5B)) was “about 50 percentage points”. For the same compound, the “inhibition of the percentage specific cytotoxicity” value (HCT8 tumour cells [1]; dexamethasone 1 μg/ml, E/T 20:1, stimulation in the absence of HCT8) was “distinctly greater inhibition”, the “inhibition of the specific percentage cytotoxicity compared with 0.1 μg/ml” value (HCT8 tumour cells [1]; dexamethasone 1 μg/ml, stimulation in the presence of HCT8 (FIG. 5C)) was “roughly the same level” and the “cytotoxicity values in relation to lower dexamethasone concentrations” value (HCT8 tumour cells [1]; dexamethasone 10 μg/ml, stimulation in the absence of HCT8) was “declined further”. The percentage cytotoxicity (HCT8 tumour cells [1]; dexamethasone 10 μg/ml, stimulation in the presence of HCT8, E/T 20:1 (FIG. 5D)) was 30%, the specific percentage cytotoxicity (HCT8 tumour cells [1]; dexamethasone 10 μg/ml, stimulation in the presence of HCT8, E/T twice as large (40:1)) was “about 60%” and the “effect on specific percentage cytotoxicity of stimulated PBMC” value (HCT8 tumour cells [1]; dexamethasone (FIG. 5A)) was “no effect; also recorded: no inhibition”. The effect on cytotoxicity (HCT8 tumour cells [1]; dexamethasone starting from 0.1 μg/ml, independent of HCT8 during stimulation) was “significant reducing; also recorded: distinct reducing”, the “percentage cytotoxicity as a function of dexamethasone concentration” value (HCT8 tumour cells [1]; stimulation of PBMC without HCT8) was “declines further” and the “non-specific secretion of TNF-α, % of value with antibody without dexamethasone” value [2] was about 20%. For the same compound, the “inhibition of the specific percentage cytotoxicity” value (HCT8 tumour cells [3]; antibody 10 ng/ml, no contact with HCT8, dexamethasone, healthy test subjects) was “about 5 percentage points”, the “inhibition of the specific percentage cytotoxicity” value (HCT8 tumour cells [3]; antibody 10 ng/ml, with HCT8, dexamethasone up to 1.0, healthy test subjects (FIG. 10A)) was “approximately 15 percentage points” and the specific percentage cytotoxicity (HCT8 tumour cells [3]; antibody 10 ng/ml, with HCT8, with dexamethasone, healthy test subjects) was about 41%. The “inhibition of the cytotoxicity” value (HCT8 tumour cells [3]; antibody 100 ng/ml, dexamethasone, patients with gastrointestinal tumours (FIG. 10D)) was “approximately 27 percentage points”, the “inhibition of the specific percentage cytotoxicity” value (HCT8 tumour cells [3]; antibody 100 ng/ml, with HCT8, dexamethasone up to 1.0, healthy test subjects (FIG. 10B)) was “about 30 percentage points” and the specific percentage cytotoxicity (HCT8 tumour cells [3]; antibody 100 ng/ml, with HCT8, with dexamethasone, healthy test subjects) was about 50%. The cytotoxicity (HCT8 tumour cells [3]; antibody 100 ng/ml, with dexamethasone, patients with gastrointestinal tumours) was about 51%, the “inhibition of the cytotoxicity” value (HCT8 tumour cells [3]; antibody 100 ng/ml, without contact with HCT8, dexamethasone, healthy test subjects) was “approximately 10 percentage points” and the “inhibition of the specific percentage cytotoxicity” value (HCT8 tumour cells [3]; antibody 1000 ng/ml, with HCT8, dexamethasone up to 1.0, healthy test subjects (FIG. 10C)) was “about 20 percentage points”. For the same compound, the specific percentage cytotoxicity (HCT8 tumour cells [3]; antibody 1000 ng/ml, with HCT8, with dexamethasone, healthy test subjects) was about 67%, the “inhibition of the cytotoxicity” value (HCT8 tumour cells [3]; antibody 1000 ng/ml, without contact with HCT8, dexamethasone, healthy test subjects) was “about 2 percentage points” and the “release of IL-6 in the supernatant” value [4] was “above 5000 pg/ml”. For the same compound, the “maximum plasma concentrations attained” value [5] was “within a few minutes” and the “release of IFN-γ” value [6] was “under 3000 pg/ml”.
